23 molecules from ChEMBL document CHEMBL5346972, “Discovery of HDAC6, HDAC8, and 6/8 Inhibitors and Development of Cell-Based Drug Screening Models for the Treatment of TGF-β-Induced Idiopathic Pulmonary Fibrosis” (J Med Chem, 2023) can be followed below.

For data set [1], the system named is NIH3T3. Nature of the data set: Antiproliferative activity against mouse NIH3T3 cells assessed as reduction in cell viability incubated for 3 days by CCK-8 assay. Type of data set: functional, cell-based. Conditions: NIH3T3, 72 h. (In general: Tetrazolium assays rely on reduction of a dye to a coloured formazan, in cell work by metabolically active cells.)
For data set [2], the system named is NIH3T3. The experiment in a line: Antiproliferative activity against mouse NIH3T3 cells assessed as reduction in cell viability by measuring optimal working concentration incubated for 3 days by CCK-8 assay relative to control. In kind it is functional. The note with it: time 3 day.
In data set [3] the target is Histone deacetylase 1 (Homo sapiens, UniProt Q13547). The experiment in a line: Inhibition of human HDAC1 expressed in baculovirus expression system in Sf9 cells using RHKKAc (379 to 382 residues) fluorogenic peptide as substrate and measured after 2 hrs by fluorescence based analysis.
The target in data set [4] is T1, Protein deacetylase HDAC6 (Homo sapiens, UniProt Q9UBN7).
T1 sequence (Q9UBN7 whole entry): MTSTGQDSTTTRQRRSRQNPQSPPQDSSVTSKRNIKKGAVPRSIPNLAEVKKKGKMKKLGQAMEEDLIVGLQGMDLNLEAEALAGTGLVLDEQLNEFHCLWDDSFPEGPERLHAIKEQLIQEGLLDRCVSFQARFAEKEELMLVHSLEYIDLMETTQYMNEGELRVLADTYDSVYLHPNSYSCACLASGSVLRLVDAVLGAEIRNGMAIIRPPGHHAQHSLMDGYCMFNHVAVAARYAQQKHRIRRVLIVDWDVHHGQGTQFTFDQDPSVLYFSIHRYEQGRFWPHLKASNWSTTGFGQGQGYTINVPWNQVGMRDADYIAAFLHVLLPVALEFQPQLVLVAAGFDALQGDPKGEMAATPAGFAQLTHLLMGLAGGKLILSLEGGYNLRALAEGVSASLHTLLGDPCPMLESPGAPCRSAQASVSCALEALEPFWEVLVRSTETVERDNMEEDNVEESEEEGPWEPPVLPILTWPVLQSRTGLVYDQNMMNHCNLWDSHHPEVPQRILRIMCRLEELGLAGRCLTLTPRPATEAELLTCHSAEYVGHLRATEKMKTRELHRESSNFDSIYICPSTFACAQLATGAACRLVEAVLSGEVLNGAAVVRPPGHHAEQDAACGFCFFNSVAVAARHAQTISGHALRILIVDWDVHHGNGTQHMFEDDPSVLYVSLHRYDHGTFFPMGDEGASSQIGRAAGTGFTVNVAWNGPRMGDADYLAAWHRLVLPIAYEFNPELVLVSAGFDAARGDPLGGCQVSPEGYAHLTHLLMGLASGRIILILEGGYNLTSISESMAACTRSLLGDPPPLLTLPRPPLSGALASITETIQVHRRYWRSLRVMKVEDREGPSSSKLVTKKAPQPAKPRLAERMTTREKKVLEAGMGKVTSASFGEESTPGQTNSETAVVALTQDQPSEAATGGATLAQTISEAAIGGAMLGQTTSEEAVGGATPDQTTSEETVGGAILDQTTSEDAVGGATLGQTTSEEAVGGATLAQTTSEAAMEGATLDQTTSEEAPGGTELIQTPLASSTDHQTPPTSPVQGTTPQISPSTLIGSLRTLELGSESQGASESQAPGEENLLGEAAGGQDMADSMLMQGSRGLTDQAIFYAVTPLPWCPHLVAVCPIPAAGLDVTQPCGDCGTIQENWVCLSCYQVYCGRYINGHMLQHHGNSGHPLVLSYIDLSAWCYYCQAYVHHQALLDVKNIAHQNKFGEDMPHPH
The experiment in a line: Inhibition of human HDAC6 expressed in baculovirus expression system in Sf9 cells using RHKKAc (379 to 382 residues) fluorogenic peptide as substrate and measured after 2 hrs by fluorescence based analysis.

The target of data set [5] is T2, Histone deacetylase 8 (Homo sapiens, UniProt Q9BY41).
T2 sequence (Q9BY41 whole entry): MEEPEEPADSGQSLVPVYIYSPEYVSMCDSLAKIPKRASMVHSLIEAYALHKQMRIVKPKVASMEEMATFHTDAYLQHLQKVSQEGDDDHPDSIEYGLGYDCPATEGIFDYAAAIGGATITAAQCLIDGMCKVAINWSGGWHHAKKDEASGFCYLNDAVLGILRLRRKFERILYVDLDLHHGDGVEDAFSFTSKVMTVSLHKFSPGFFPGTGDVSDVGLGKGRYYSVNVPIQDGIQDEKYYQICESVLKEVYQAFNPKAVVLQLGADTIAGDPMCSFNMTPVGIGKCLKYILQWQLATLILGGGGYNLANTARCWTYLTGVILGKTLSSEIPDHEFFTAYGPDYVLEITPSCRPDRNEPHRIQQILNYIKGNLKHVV
The experiment in a line: Inhibition of human HDAC8 expressed in baculovirus expression system in Sf9 cells using RHKAcKAc (379 to 382 residues) fluorogenic peptide as substrate and measured after 2 hrs by fluorescence based analysis.

Data set [6] in a line: in vitro. The note with it: human.
Data set [7] is described as follows: Antiproliferative activity against human Pulmonary fibroblast cells assessed as reduction in cell viability by measuring optimal working concentration incubated for 3 days by CCK-8 assay. In kind it is functional. Conditions: time 3 day.
Data set [8] is described as follows: Metabolic stability in human liver microsomes assessed as parent compound remaining at 200 uM preincubated for 5 mins followed by NADPH and measured at 60 mins by LC-MS/MS analysis.
Data set [9] in a line: Antiproliferative activity against human Pulmonary fibroblast cells assessed as reduction in cell viability incubated for 3 days by CCK-8 assay. In kind it is functional, cell-based. The note with it: 72 h.
The nature of data set [10]: in vitro. Conditions: human, Caco-2.
Description: Apparent permeability across apical to basolateral side in human Caco-2 cells at 10 uM preincubated for 10mins followed by compound addition and measured after 90 mins by LC-MS/MS analysis
Data set [11] is described as follows: in vitro. Conditions: human. The source holds these as a separate data set.

Histone deacetylase 1, sequence (Q13547 whole entry, the tested form may be a part): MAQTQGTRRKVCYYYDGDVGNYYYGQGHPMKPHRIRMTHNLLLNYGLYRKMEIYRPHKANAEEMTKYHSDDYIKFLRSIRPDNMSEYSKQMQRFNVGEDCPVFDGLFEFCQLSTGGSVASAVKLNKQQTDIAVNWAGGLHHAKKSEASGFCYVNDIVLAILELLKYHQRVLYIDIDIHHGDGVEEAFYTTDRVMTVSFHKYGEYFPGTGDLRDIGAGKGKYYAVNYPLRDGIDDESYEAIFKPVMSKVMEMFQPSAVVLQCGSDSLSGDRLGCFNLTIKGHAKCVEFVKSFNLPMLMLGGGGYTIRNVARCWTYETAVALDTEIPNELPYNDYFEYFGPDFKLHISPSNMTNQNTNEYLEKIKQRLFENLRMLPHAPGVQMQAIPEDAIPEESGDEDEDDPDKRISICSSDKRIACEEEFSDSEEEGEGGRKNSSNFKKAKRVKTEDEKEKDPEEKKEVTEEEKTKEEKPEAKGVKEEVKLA

Broadly, the IC50 is the midpoint of a concentration-inhibition curve. `O=C(NO)c1ccc(Cn2c(=O)n(CCc3ccccc3)c(=O)c3cc(Cl)ccc32)cc1`: in [1], the IC50 worked out at 3.79 µM. Also, the MEC in [2] was determined as 0.81 µM.
As to `Cn1c(CCC(=O)NO)nc2ccccc2c1=O`, the IC50 is greater than 30 µM in data set [3], 22 µM in data set [4] and 10.4 µM in data set [5].
Take `O=C(CS)Nc1ccc(Cn2c(=O)[nH]c(=O)c3cccc(Cl)c32)cc1`: in data set [4], 0.0053 µM corresponded to half-maximal inhibition (IC50).
On to `O=C(CCn1c(=O)n(Cc2ccccc2)c(=O)c2ccc(Cl)cc21)NO`, for which the IC50 is 9.12 µM in data set [1], greater than 10 µM in data set [3] and 0.047 µM in [4]. In addition, in data set [2], the MEC was determined as 2.9 µM.
With `O=C(NO)c1ccc(Cn2c(=O)n(CCc3ccccc3)c(=O)c3ccc(C(F)(F)F)cc32)cc1`, the IC50 in data set [1] amounted to 4.23 µM. The MEC in data set [2] turned out to be 1.24 µM.
For orientation: half-life means the time needed for the level to fall by half in the phase considered. The low end stands for rapid decline, the high end for slow decline. In general, share remaining refers to what is left of the initial amount, in per cent. Broadly, the Papp A→B is how fast a substance crosses the layer from the apical side. Low readings indicate slow passage, high ones fast passage. In general, CLint scaled refers to the rate of metabolic loss divided by the concentration. Low readings indicate slow turnover, high ones rapid turnover. For `O=C(NO)c1ccc(/C=C/c2nc3ccccc3c(=O)[nH]2)cc1`, the IC50 in [1] is 5.02 µM; in [3], 16.2 µM; in data set [9], greater than 40 µM; in data set [4] it was 0.028 µM; in [5], 0.325 µM. In [6] (liver microsomes), this molecule displayed a half-life at 1 h, 200 µM of 1.26 h. In addition, the MEC in data set [7] worked out at 10 µM; in data set [2], 2.27 µM. Moreover, the amount remaining at 1 h, 200 µM in data set [8] (liver microsomes) was determined as 58.1%. In data set [10], the Papp A→B at 1.5 h, 10 µM is 0.3 ×10⁻⁶ cm/s. In data set [11] (liver microsomes), this molecule registered a CLint scaled at 1 h, 200 µM of 10.5 mL/min/kg.
As to `CCc1nc2c(Cc3ccc(C(=O)NO)cc3)cccc2c(=O)n1CCc1ccccc1`, the IC50 in data set [1] was found to be 338 µM. In data set [2], the MEC came to 0.4 µM.
With `O=C(NO)c1cccc(Cn2c(=O)[nH]c(=O)c3cccc(Cl)c32)c1`, the half-maximal inhibitory concentration (IC50) was greater than 40 µM in [1], greater than 30 µM in [3], 5.95 µM in [4] and 0.966 µM in data set [5]. Moreover, in data set [2], the MEC was 10 µM.
With `O=C(NO)c1ccc(-c2nc3ccccc3c(=O)[nH]2)cc1`, the IC50 in data set [1] was greater than 40 µM; in [3], greater than 30 µM; in data set [9] it was greater than 40 µM; in data set [4], 0.317 µM; in [5], 1.62 µM. The MEC in [7] turned out to be 5 µM; in data set [2], 10 µM.
In the case of `O=C(NO)c1ccc(Cn2c(=O)[nH]c(=O)c3cc(F)ccc32)cc1`, the half-inhibitory concentration (IC50) in data set [1] came out at 4.76 µM; in data set [3], 1.27 µM; in data set [4], 0.006 µM; in data set [5], 0.222 µM.
On to `O=C(NO)c1ccc(Cn2c(=O)n(CCc3ccccc3)c(=O)c3ccccc32)cc1`, for which the IC50 is 5.1 µM in data set [1] and greater than 10 µM in data set [3]. Further, the MEC in data set [2] amounted to 2.88 µM.
Consider `O=C(NO)c1ccc(Cn2c(=O)[nH]c(=O)c3cc(Br)ccc32)cc1`, for which the IC50 in data set [1] stood at 757 µM; in [3] it was 4.28 µM; in data set [4] it was 0.018 µM; in [5], 0.371 µM. Further, in data set [2], the MEC amounted to 6.05 µM.
For the molecule `N#Cc1ccc2c(=O)n(CCc3ccccc3)c(=O)n(Cc3ccc(C(=O)NO)cc3)c2c1`, the IC50 came to 735 µM in [1] and 0.13 µM in [5]. The MEC in [2] is 4.5 µM.
With `O=C(NO)c1ccc(Cn2c(=O)n(CCc3ccccc3)c(=O)c3ccccc32)c(F)c1`, the IC50 in data set [1] stood at 10.1 µM; in data set [3], 14.5 µM; in data set [4], 0.108 µM; in data set [5] it was 0.255 µM. Also, the MEC in data set [2] is 0.73 µM.
In the case of `COc1ccccc1CCn1c(=O)c2ccccc2n(Cc2ccc(C(=O)NO)cc2)c1=O`, the IC50 in data set [1] worked out at 9.55 µM.
As for `COc1ccc2c(c1)[C@]13CCCC[C@@H]1[C@H](C2)N(C)CC3` [DEXTROMETHORPHAN], the half-life at 1 h, 200 µM in [6] (liver microsomes) is 0.582 h. In addition, the fraction remaining at 1 h, 200 µM in data set [8] (liver microsomes) was 30.4%. This molecule also registered a CLint scaled at 1 h, 200 µM in data set [11] (liver microsomes) of 14.3 mL/min/kg.
Take `O=C(NO)c1ccc(Cn2c(=O)n(CCc3ccccc3O)c(=O)c3ccccc32)cc1`: in data set [1], the half-maximal inhibitory concentration (IC50) is 9.95 µM. In data set [2], the MEC was 4.94 µM.
`CCc1nc2ccc(/C=C/CC(=O)NO)cc2c(=O)n1-c1ccccc1`: the 50% inhibitory concentration (IC50) in data set [1] was greater than 40 µM; in [3], 15.9 µM; in [4], 0.285 µM; in data set [5] it was 3.69 µM. Besides, the MEC in data set [2] stood at 10 µM.
As to `O=C(NO)c1ccc(Cn2c(=O)[nH]c(=O)c3ccc(C(F)(F)F)cc32)cc1`, the IC50 in data set [1] stood at 16 µM; in data set [3] it was 5.18 µM; in data set [4] it was 0.058 µM; in data set [5], 0.302 µM. In data set [2], the MEC turned out to be 4.72 µM.
With `O=C(CCn1c(=O)n(CCc2ccccc2)c(=O)c2ccccc21)NO`, the IC50 was 7.14 µM in [1], greater than 10 µM in data set [3], 0.798 µM in [4] and 0.454 µM in data set [5]. Moreover, in data set [2], the MEC stood at 1.14 µM.
Turning to `Cc1nc2ccc(/C=C/CC(=O)NO)cc2c(=O)n1-c1ccccc1`, the IC50 is greater than 40 µM in data set [1]; 17.3 µM in data set [3]; greater than 40 µM in data set [9]; 0.168 µM in data set [4]; 3.73 µM in data set [5]. This molecule had a half-life at 1 h, 200 µM in data set [6] (microsomes) greater than 3.11 h. In addition, the MEC in data set [7] and in data set [2] was 10 µM in each case. Moreover, the fraction remaining at 1 h, 200 µM in data set [8] (microsomes) came to 84.3%. In data set [11] (microsomes), this molecule yielded a CLint scaled at 1 h, 200 µM of less than 6.1 mL/min/kg.
For the molecule `O=C(NO)c1ccc(Cn2c(=O)[nH]c(=O)c3ccc(F)cc32)cc1`, the IC50 is 15.3 µM in data set [1], 0.423 µM in data set [3], 0.0016 µM in data set [4] and 0.154 µM in data set [5]. The MEC in [2] stood at 2.7 µM.
On to `O=C(NO)c1ccc(Cn2c(=O)[nH]c(=O)c3c(Cl)cccc32)cc1`, for which the half-inhibitory concentration (IC50) in [1] worked out at 23.3 µM; in [3], 3.32 µM; in data set [4] it was 0.013 µM; in data set [5] it was 0.281 µM. For the same molecule, the MEC in data set [2] came out at 12 µM.
